Earlier results in patent US20050164162A1, “Methods for multiple parameters screening and evolution of cells to produce small molecules with multiple functionalities” (EVOLVA LTD., C/O DR. IUR. MARTIN EISENRING, priority 2002, published 2005).

Tests used:
[1] = co-administration of retinoids (LG100268)+TZDs; clinical studies
colorectal cancer = conditions: persons who regularly use Aspirin and other NSAIDs; population-based studies

| SMILES | increases insulin sensitivity and glucose uptake [1] [%] | decrease in relative risk for colorectal cancer (colorectal cancer) |
| --- | --- | --- |
| Cc1cc2c(cc1C1(c3ccc(C(=O)O)cn3)CC1)C(C)(C)CCC2(C)C [LG100268] | 60 |  |
| CC(=O)Oc1ccccc1C(=O)O [Aspirin] |  | 40-50% |
